Source: ChEMBL document CHEMBL6114985, “From Dyrk1A inhibitors to a novel class of antiviral agents: Targeting Enterovirus EV-A71 with 2-aryl-substituted thiophene scaffolds” (Eur J Med Chem, 2025)

Legend:
Enterovirus A71 [1] = assay: Antiviral activity against Enterovirus A71 TW/2231/98 infected in human RD cells assessed as reduction in cytopathic effect incubated for 3 days; type: functional, organism-based; conditions: Enterovirus A, TW/2231/98, RD, 72 h
[2] = Cytotoxicity against human RD cells assessed as reduction in cell growth incubated for 3 days by MTT assay; type: toxicity, cell-based; conditions: time 3 day
[3] = Selectivity index, ratio of CC50 for human RD cells to EC50 for antiviral activity against enterovirus A71 TW/2231/98 infected in human RD cells; type: toxicity, cell-based; conditions: read-out: Ratio CC50/EC50
[4] = Cytotoxicity against human A549 cells infected with Human adenovirus; type: toxicity, cell-based
[5] = Cytotoxicity against human A549 cells infected with Herpes Simplexvirus; type: toxicity, cell-based; conditions: A549 cells infected with herpes simplex virus
Enterovirus A71 [6] = assay: Antiviral activity against Enterovirus A71 TW/2231/98 infected in human RD cells assessed as inhibition of viral plaque formation at 45 uM incubated for 3 to 5 days by crystal violet staining based plaque reduction assay relative to control; type: functional; conditions: Enterovirus A, TW/2231/98, RD, time 3-5 day
Human adenovirus sp. = assay: microbe, parasite or virus in culture; conditions: A549
Herpes Simplexvirus = assay: microbe, parasite or virus in culture; conditions: A549
[7] = target: Dual specificity tyrosine-phosphorylation-regulated kinase 1A (Homo sapiens, UniProt Q13627); assay: Inhibition of DYRK1A (unknown origin) at 25 uM incubated for 1 hr relative to control
Enterovirus A71 [8] = assay: Antiviral activity against Enterovirus A71 2231 assessed as reduction in viral replication; type: functional, organism-based; conditions: Enterovirus A
Enterovirus A71 [9] = assay: Antiviral activity against Enterovirus A71 4798 assessed as reduction in viral replication; type: functional, organism-based; conditions: Enterovirus A
enterovirus D68 [10] = assay: Antiviral activity against Enterovirus D68 2795 assessed as reduction in viral replication; type: functional, organism-based; conditions: Enterovirus D
enterovirus D68 [11] = assay: Antiviral activity against Enterovirus D68 KY 18953 assessed as reduction in viral replication; type: functional, organism-based; conditions: Enterovirus D
Coxsackievirus = assay: Antiviral activity against Coxsackievirus assessed as reduction in viral replication; type: functional, organism-based
Human rhinovirus sp. = assay: Antiviral activity against Human rhinovirus 71803 assessed as reduction in viral replication; type: functional, organism-based
Influenza A virus = assay: Antiviral activity against influenza A virus assessed as reduction in viral replication; type: functional, organism-based
[12] = Lipophilicity, logD of compound by UPLC-MS analysis; type: physicochemical; conditions: octanol/water
[13] = Metabolic stability in mouse liver microsome assessed as half life incubated for 120 mins by HPLC-MS/MS; type: ADME; conditions: liver microsomes
[14] = Metabolic stability in mouse liver microsome assessed as intrinsic clearance incubated for 120 mins by HPLC-MS/MS; type: ADME; conditions: liver microsomes, read-out: CLH
[15] = Metabolic stability in human liver microsome assessed as half life incubated for 120 mins by HPLC-MS/MS; type: ADME; conditions: liver microsomes
[16] = Metabolic stability in human liver microsome assessed as intrinsic clearance incubated for 120 mins by HPLC-MS/MS; type: ADME; conditions: liver microsomes, read-out: CLH
[17] = Stability in mouse plasma assessed as half life by HPLC-MS/MS; type: ADME, cell-free
[18] = Stability in human plasma assessed as half life by HPLC-MS/MS; type: ADME, cell-free
[19] = Plasma protein binding in human by rapid equilibrium dialysis based HPLC-MS/MS analysis; type: ADME, cell-free; conditions: read-out: PPB (converted)
[20] = Plasma protein binding in mouse by rapid equilibrium dialysis based HPLC-MS/MS analysis; type: ADME, cell-free; conditions: read-out: PPB (converted)

SMILES | EC50 (Enterovirus A71 [1]) | CC50 at 72 h [2] | selectivity ratio [3] | also measured
COc1cc(C(=O)Nc2cncc(-c3cc(-c4cccnc4)cs3)c2)ccc1C | > 10 µM |  |  | 
COc1ccc(F)c(C(=O)Nc2cncc(-c3cc(-c4ccccc4)cs3)c2)c1 | > 10 µM |  |  | 
COc1ccc(F)c(C(=O)Nc2cncc(-c3cn(-c4cccnc4)nn3)c2)c1 | > 10 µM |  |  | 
COc1ccc(F)c(S(=O)(=O)Nc2cncc(-c3cccs3)c2)c1 | > 10 µM |  |  | 
COc1ccc(F)c(C(=O)Nc2cncc(-c3cc(-c4ccncc4)cs3)c2)c1 | > 10 µM |  |  | 
COc1ccc(F)c(C(=O)N(C)c2cncc(-c3cc(-c4cccnc4)cs3)c2)c1 | > 10 µM |  |  | 
COc1cccc(C(=O)Nc2cncc(-c3cc(Br)cs3)c2)c1F | 8.9 µM |  |  | 
COc1ccc(F)c(C(=O)Nc2cncc(-c3cccs3)n2)c1 | > 10 µM |  |  | 
COc1ccc(F)c(C(=O)Nc2cncc(-c3cc(-c4cnccc4C)cs3)c2)c1 | 9.1 µM | 18.1 µM | 2 | 
COc1ccc(F)c(C(=O)Nc2cncc(-c3cc4ccccc4s3)c2)c1 | 8.7 µM | 47.3 µM | 5.4 | 
COc1ccc2c(c1)[nH]c1c(C)nccc12 [HARMINE] |  |  |  | CC50 [4]: > 20 µM; CC50 [5]: > 20 µM; inhibition at 45 µM (Enterovirus A71 [6]): 40%; EC50 (Human adenovirus sp.): 5.7 µM; EC50 (Herpes Simplexvirus): 3.3 µM
COc1ccc(F)c(C(=O)Nc2cncc(-c3cc(-c4cccnc4C)cs3)c2)c1 | 9.1 µM | 15.6 µM | 1.7 | 
COc1ccc(F)c(C(=O)Nc2cncc(-c3cccnc3)c2)c1 | > 10 µM |  |  | 
CC(C)(C)Oc1ccc(C(=O)Nc2cncc(-c3cc(-c4cccnc4)cs3)c2)cc1 | > 10 µM |  |  | 
COc1cc(OC)cc(C(=O)Nc2cncc(-c3cc(-c4cccnc4)cs3)c2)c1 | > 10 µM |  |  | 
COc1ccc(C(=O)Nc2cncc(-c3cc(-c4cccnc4)cs3)c2)cc1F | > 10 µM |  |  | 
COc1ccc(F)c(C(=O)Nc2cncc(-c3cc(-c4cccnc4)cs3)c2)c1F | 2.6 µM | 20 µM | 7.7 | inhibition [7]: 81%
COc1ccc(F)c(CNc2cncc(-c3cccs3)c2)c1 | > 10 µM |  |  | 
CCOC(=O)c1ccc(OCCC2CCN(c3ccc(C)nn3)CC2)cc1 [PIRODAVIR] | 0.6 µM | > 10 µM | > 16.7 | 
O=C(Nc1cncc(-c2cccs2)c1)c1c(F)cc(F)cc1F | 5.4 µM | 45.3 µM | 8.4 | EC50 (Enterovirus A71 [8]): 5.4 µM; EC50 (Enterovirus A71 [9]): 7.3 µM; EC50 (enterovirus D68 [10]): 5 µM; EC50 (enterovirus D68 [11]): 5.4 µM; EC50 (Coxsackievirus): 9.9 µM; EC50 (Human rhinovirus sp.): 7.5 µM; EC50 (Influenza A virus): > 10 µM
O=C(Nc1cncc(-c2cc(-c3cccnc3)cs2)c1)c1ccc(O)cc1 | > 10 µM | > 10 µM |  | 
COc1ccc(C(=O)Nc2cncc(-c3cc(-c4cccnc4)cs3)c2)cc1OC | > 10 µM |  |  | 

SMILES | EC50 (Enterovirus A71 [1]) | CC50 at 72 h [2] | selectivity ratio [3] | also measured
COc1ccc(F)c(C(=O)Nc2ccnc(-c3cccs3)c2)c1 | > 10 µM |  |  | 
COc1ccc(Cl)c(C(=O)Nc2cncc(-c3cc(-c4cccnc4)cs3)c2)c1F | 5.7 µM | > 100 µM | > 17.5 | inhibition [7]: 95%
COc1ccc(F)c(C(=O)Nc2cncc(-c3ncns3)c2)c1 | > 10 µM |  |  | 
COc1cc(C(=O)Nc2cncc(-c3cc(-c4cccnc4)cs3)c2)ccc1F | > 10 µM |  |  | 
COc1cccc(C(=O)Nc2cncc(-c3cccs3)c2)c1F | 4.7 µM | 52.8 µM | 11.2 | 
COc1ccc(F)c(C(=O)Nc2cccc(-c3cccs3)n2)c1 | > 10 µM |  |  | 
COc1ccc(F)c(C(=O)Nc2cncc(-c3ccccc3)c2)c1 | > 10 µM |  |  | 
COc1cc(C(=O)Nc2cncc(-c3cccs3)c2)ccc1C | > 10 µM |  |  | 
COc1ccc(C(=O)Nc2cncc(-c3cc(-c4cccnc4)cs3)c2)c(F)c1 | > 10 µM |  |  | 
COc1ccc(F)c(C(=O)Nc2cncc(-c3cc(-c4cccnc4)cs3)c2)c1Cl | 5.2 µM | > 100 µM | > 19.2 | inhibition [7]: 93%; logD [12]: 3.22; half-life [13]: 10 min; microsomal CLint [14]: 137 µL/min/mg; half-life [15]: 25 min; microsomal CLint [16]: 56 µL/min/mg; half-life [17]: > 240 min; half-life [18]: > 240 min; fraction unbound [19]: 0.0029; EC50 (Enterovirus A71 [8]): 5.2 µM; EC50 (Enterovirus A71 [9]): 4 µM; EC50 (enterovirus D68 [10]): 5.1 µM; EC50 (enterovirus D68 [11]): 3.7 µM; EC50 (Coxsackievirus): > 10 µM; EC50 (Human rhinovirus sp.): 6.9 µM
COc1ccc(F)c(C(=O)Nc2cncc(-c3cc(-c4cn[nH]c4)cs3)c2)c1 | 5.4 µM | 19.6 µM | 3.6 | 
COc1ccc(F)c(C(=O)Nc2cncc(-c3cccs3)c2)c1 | 4.3 µM | 75.7 µM | 17.6 | inhibition [7]: 0%; logD [12]: 3.52; half-life [13]: 11 min; microsomal CLint [14]: 127 µL/min/mg; half-life [15]: 31.5 min; microsomal CLint [16]: 44 µL/min/mg; half-life [17]: > 240 min; half-life [18]: > 240 min; fraction unbound [20]: 0.038; fraction unbound [19]: 0.0165; EC50 (Enterovirus A71 [8]): 4.3 µM; EC50 (Enterovirus A71 [9]): 5.5 µM; EC50 (enterovirus D68 [10]): 3.6 µM; EC50 (enterovirus D68 [11]): 3.5 µM; EC50 (Coxsackievirus): 3.9 µM; EC50 (Human rhinovirus sp.): 4.8 µM; EC50 (Influenza A virus): > 10 µM
COc1ccc(F)c(C(=O)Nc2cncc(-c3nccs3)c2)c1 | > 10 µM |  |  | 
COc1cc(C(=O)Nc2cncc(-c3cc(Br)cs3)c2)ccc1C | > 10 µM |  |  | 
COc1cccc(C(=O)Nc2cncc(-c3cc(-c4cccnc4)cs3)c2)c1F | 7.2 µM | 21.3 µM | 3 | 
O=C(Nc1cncc(-c2cc(-c3cccnc3)cs2)c1)c1ccc(OC(F)(F)F)cc1 | > 10 µM |  |  | 
COc1ccc(F)c(C(=O)Nc2cc(-c3cccs3)ccn2)c1 | 2.4 µM | 33.5 µM | 14 | inhibition [7]: 4%
COc1ccc(F)c(C(=O)Nc2cncc(-c3cncs3)c2)c1 | > 10 µM |  |  | 
COc1ccc(Cl)c(C(=O)Nc2cncc(-c3cc(-c4cccnc4)cs3)c2)c1 | > 10 µM |  |  | 
COc1ccc(F)c(C(=O)Nc2cncc(-c3cc(-c4cccnc4F)cs3)c2)c1 | 8.7 µM | > 100 µM | > 11.5 | 
COc1c(F)ccc(C(=O)Nc2cncc(-c3cc(-c4cccnc4)cs3)c2)c1F | > 10 µM |  |  | 
